Target: T1, recombinant human GST-Syk (Homo sapiens, UniProt P43405)
T1 construct: purchased Carna Biosciences 08-176
Test: Homogeneous Time-Resolved Fluorescence (HTRF) assay for the recombinant human Syk enzyme
Type: biochemical
Conditions: recombinant human GST-Syk 5 pM, ATP 25 μM, 10-dose titration 10 μM to 0.508 nM; read-out: rhSYK Activity IC50
Summary of the method: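 Detection used time-resolved fluorescence 30 min after adding a quench mix (40 mM EDTA, 15 mM Tris pH 7.5, 0.01% Tween 20) containing 2 nM Europium anti-pTyr antibody and 70 nM streptavidin-APC. This followed 45 min of room-temperature peptide phosphorylation by recombinant GST-tagged human Syk.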

IC50 | Structure (SMILES)
186 nM | Cc1cc(Nc2cc(C(F)(F)F)ccn2)nc(-c2cn(C(C)C(=O)NCCc3cn(C)c4ccccc34)nn2)c1 (stereo not drawn) [Example 1.51, N-[2-(1-methyl-1H-indol-3-yl)ethyl]-2-[4-(4-methyl-6-{[4-(trifluoromethyl)pyridin-2-yl]amino}pyridin-2-yl)-1H-1,2,3-triazol-1-yl]propanamide]
435 nM | Cc1cc(Nc2cc(C(F)(F)F)ccn2)nc(-c2cn(C(C)C(=O)NCC(c3ccc(C(F)(F)F)cc3)N3CCOCC3)nn2)c1 (stereo not drawn) [Example 1.52, 2-[4-(4-methyl-6-{[4-(trifluoromethyl)pyridin-2-yl]amino}pyridin-2-yl)-1H-1,2,3-triazol-1-yl]-N-{2-morpholin-4-yl-2-[4-(trifluoromethyl)phenyl]ethyl}propanamide]
34.7 nM | Cc1cc(Nc2cc(C(F)(F)F)ccn2)nc(-c2cn(C(C)C(=O)N3CCC(c4ccncc4)C3)nn2)c1 (stereo not drawn) [Example 1.53, 4-methyl-6-{1-[1-methyl-2-oxo-2-(3-pyridin-4-ylpyrrolidin-1-yl)ethyl]-1H-1,2,3-triazol-4-yl}-N-[4-(trifluoromethyl)pyridin-2-yl]pyridin-2-amine]
134 nM | Cc1cc(Nc2cc(C(F)(F)F)ccn2)nc(-c2cn(C(C)C(=O)N3CCc4cc(O)c(O)cc4C(c4ccccc4)C3)nn2)c1 (stereo not drawn) [Example 1.54, 3-{2-[4-(4-methyl-6-{[4-(trifluoromethyl)pyridin-2-yl]amino}pyridin-2-yl)-1H-1,2,3-triazol-1-yl]propanoyl}-1-phenyl-2,3,4,5-tetrahydro-1H-3-benzazepine-7,8-diol]
449 nM | COC(=O)[C@@H]1CCCN1C(=O)[C@@H](C)n1cc(-c2cc(C)cc(Nc3cc(C(F)(F)F)ccn3)n2)nn1 [Example 1.55, methyl 1-{(2R)-2-[4-(4-methyl-6-{[4-(trifluoromethyl)pyridin-2-yl]amino}pyridin-2-yl)-1H-1,2,3-triazol-1-yl]propanoyl}prolinate]
423 nM | COC(=O)[C@@H]1CCCN1C(=O)[C@H](C)n1cc(-c2cc(C)cc(Nc3cc(C(F)(F)F)ccn3)n2)nn1 [Example 1.56, methyl 1-{(2S)-2-[4-(4-methyl-6-{[4-(trifluoromethyl)pyridin-2-yl]amino}pyridin-2-yl)-1H-1,2,3-triazol-1-yl]propanoyl}prolinate]
92.8 nM | COC(=O)CNC(=O)[C@@H](C)n1cc(-c2cc(C)cc(Nc3cc(C(F)(F)F)ccn3)n2)nn1 [Example 1.57, methyl N-{(2R)-2-[4-(4-methyl-6-{[4-(trifluoromethyl)pyridin-2-yl]amino}pyridin-2-yl)-1H-1,2,3-triazol-1-yl]propanoyl}glycinate]
29.7 nM | Cc1cc(Nc2nccc(C(F)(F)F)n2)cc(-n2cc(C3(O)CCC(C(N)=O)C(C)(C)C3)nn2)c1 (stereo not drawn) [Example 1.58, 4-hydroxy-2,2-dimethyl-4-[1-(3-methyl-5-{[4-(trifluoromethyl)pyrimidin-2-yl]amino}phenyl)-1H-1,2,3-triazol-4-yl]cyclohexanecarboxamide]
8.88 nM | Cc1cc(Nc2cc(F)ccn2)nc(-c2cn(C(C)c3ccc(C(=O)O)cc3)nn2)c1 (stereo not drawn) [Example 2.2, 4-[1-(4-{6-[(4-fluoropyridin-2-yl)amino]-4-methylpyridin-2-yl}-1H-1,2,3-triazol-1-yl)ethyl]benzoic acid]
21.1 nM | Cc1cc(Nc2cc(C(C)O)ccn2)nc(-c2cn(C(C)c3ccc(C(=O)O)cc3)nn2)c1 (stereo not drawn) [Example 2.3, 4-{1-[4-(6-{[4-(1-hydroxyethyl)pyridin-2-yl]amino}-4-methylpyridin-2-yl)-1H-1,2,3-triazol-1-yl]ethyl}benzoic acid]
28.1 nM | Cc1cc(Nc2cc(OCCO)ccn2)nc(-c2cn(C(C)c3ccc(C(=O)O)cc3)nn2)c1 (stereo not drawn) [Example 2.4, 4-{1-[4-(6-{[4-(2-hydroxyethoxy)pyridin-2-yl]amino}-4-methylpyridin-2-yl)-1H-1,2,3-triazol-1-yl]ethyl}benzoic acid]
132 nM | Cc1cc(Nc2cc(OC3CCOC3)ccn2)nc(-c2cn(C(C)c3ccc(C(=O)O)cc3)nn2)c1 (stereo not drawn) [Example 2.5, 4-{1-[4-(4-methyl-6-{[4-(tetrahydrofuran-3-yloxy)pyridin-2-yl]amino}pyridin-2-yl)-1H-1,2,3-triazol-1-yl]ethyl}benzoic acid]
26.6 nM | Cc1cc(Nc2cc(OC3CCCCC3)ccn2)nc(-c2cn(C(C)c3ccc(C(=O)O)cc3)nn2)c1 (stereo not drawn) [Example 2.6, 4-{1-[4-(6-{[4-(cyclohexyloxy)pyridin-2-yl]amino}-4-methylpyridin-2-yl)-1H-1,2,3-triazol-1-yl]ethyl}benzoic acid]
5050 nM | Cc1cc(Nc2cc(OC3CCC3)ccn2)nc(-c2cn(C(C)c3ccc(C(=O)O)cc3)nn2)c1 (stereo not drawn) [Example 2.8, 4-{1-[4-(6-{[4-(cyclobutyloxy)pyridin-2-yl]amino}-4-methylpyridin-2-yl)-1H-1,2,3-triazol-1-yl]ethyl}benzoic acid]
58.7 nM | CCOc1ccnc(Nc2cc(C)cc(-c3cn(C(C)c4ccc(C(=O)O)cc4)nn3)n2)c1 (stereo not drawn) [Example 2.9, 4-[1-(4-{6-[(4-ethoxypyridin-2-yl)amino]-4-methylpyridin-2-yl}-1H-1,2,3-triazol-1-yl)ethyl]benzoic acid]
3.7 nM | Cc1cc(Nc2cc(C3CCC3)ccn2)nc(-c2cn(C(C)c3ccc(C(=O)O)cc3)nn2)c1 (stereo not drawn) [Example 2.10, 4-[1-(4-{6-[(4-cyclobutylpyridin-2-yl)amino]-4-methylpyridin-2-yl}-1H-1,2,3-triazol-1-yl)ethyl]benzoic acid]
6.4 nM | Cc1cc(Nc2cc(C3CC3)ccn2)nc(-c2cn(C(C)c3ccc(C(=O)O)cc3)nn2)c1 (stereo not drawn) [Example 2.11, 4-[1-(4-{6-[(4-cyclopropylpyridin-2-yl)amino]-4-methylpyridin-2-yl}-1H-1,2,3-triazol-1-yl)ethyl]benzoic acid]
5.5 nM | Cc1cc(Nc2cc(C(C)(C)C)ccn2)nc(-c2cn(C(C)c3ccc(C(=O)O)cc3)nn2)c1 (stereo not drawn) [Example 2.12, 4-[1-(4-{6-[(4-tert-butylpyridin-2-yl)amino]-4-methylpyridin-2-yl}-1H-1,2,3-triazol-1-yl)ethyl]benzoic acid]
8.4 nM | Cc1cc(Nc2cc(C(C)C)ccn2)nc(-c2cn(C(C)c3ccc(C(=O)O)cc3)nn2)c1 (stereo not drawn) [Example 2.13, 4-{1-[4-(4-methyl-6-{[4-(1-methylethyl)pyridin-2-yl]amino}pyridin-2-yl)-1H-1,2,3-triazol-1-yl]ethyl}benzoic acid]
281 nM | Cc1cc(Nc2nccc(C(F)(F)F)n2)cc(-c2nc[nH]n2)c1 [Example 2.14, N-[3-methyl-5-(1H-1,2,4-triazol-3-yl)phenyl]-4-(trifluoromethyl)pyrimidin-2-amine]
3150 nM | Cc1cc(Nc2nccc(C(F)(F)F)n2)cc(-c2ncnn2C[C@H](O)CO)c1 [Example 2.15, (2S)-3-[5-(3-methyl-5-{[4-(trifluoromethyl)pyrimidin-2-yl]amino}phenyl)-1H-1,2,4-triazol-1-yl]propane-1,2-diol]
70.4 nM | Cc1cc(Nc2cc(C(F)(F)F)ccn2)nc(-c2cn(CC3(O)CCC(C(=O)O)C(C)(C)C3)nn2)c1 (stereo not drawn) [Example 3.5, 4-hydroxy-2,2-dimethyl-4-{[4-(4-methyl-6-{[4-(trifluoromethyl)pyridin-2-yl]amino}pyridin-2-yl)-1H-1,2,3-triazol-1-yl]methyl}cyclohexanecarboxylic acid]
3.9 nM | Cc1cc(Nc2cc(C(F)(F)F)ccn2)nc(-c2cn(C(C(=O)O)c3ccc(F)cc3)nn2)c1 (stereo not drawn) [Example 3.10, (4-fluorophenyl)[4-(4-methyl-6-{[4-(trifluoromethyl)pyridin-2-yl]amino}pyridin-2-yl)-1H-1,2,3-triazol-1-yl]acetic acid]
5.1 nM | Cc1cc(Nc2cc(C(F)(F)F)ccn2)nc(-c2cn(C(C(=O)O)c3ccccc3)nn2)c1 (stereo not drawn) [Example 3.11, [4-(4-methyl-6-{[4-(trifluoromethyl)pyridin-2-yl]amino}pyridin-2-yl)-1H-1,2,3-triazol-1-yl](phenyl)acetic acid]
105 nM | Cc1cc(Nc2cc(C(F)(F)F)ccn2)nc(-c2cn([C@H](C)C(=O)N3CCC[C@H]3C(=O)O)nn2)c1 [Example 3.12, 1-{(2R)-2-[4-(4-methyl-6-{[4-(trifluoromethyl)pyridin-2-yl]amino}pyridin-2-yl)-1H-1,2,3-triazol-1-yl]propanoyl}proline]
95 nM | Cc1cc(Nc2cc(C(F)(F)F)ccn2)nc(-c2cn([C@@H](C)C(=O)N3CCC[C@H]3C(=O)O)nn2)c1 [Example 3.13, 1-{(2S)-2-[4-(4-methyl-6-{[4-(trifluoromethyl)pyridin-2-yl]amino}pyridin-2-yl)-1H-1,2,3-triazol-1-yl]propanoyl}proline]
9.6 nM | Cc1cc(Nc2cc(C(F)(F)F)ccn2)nc(-c2cn([C@H](C)C(=O)NCC(=O)O)nn2)c1 [Example 3.14, N-{(2R)-2-[4-(4-methyl-6-{[4-(trifluoromethyl)pyridin-2-yl]amino}pyridin-2-yl)-1H-1,2,3-triazol-1-yl]propanoyl}glycine]
8.9 nM | Cc1cc(Nc2cc(C(F)(F)F)ccn2)nc(-c2cn([C@@H](C)C(=O)NCC(=O)O)nn2)c1 [Example 3.15, N-{(2S)-2-[4-(4-methyl-6-{[4-(trifluoromethyl)pyridin-2-yl]amino}pyridin-2-yl)-1H-1,2,3-triazol-1-yl]propanoyl}glycine]
33.3 nM | Cc1cc(Nc2nccc(C(F)(F)F)n2)cc(-c2cn(C3CCC(C(=O)O)CC3)nn2)c1 (stereo not drawn) [Example 3.16, 4-[4-(3-methyl-5-{[4-(trifluoromethyl)pyrimidin-2-yl]amino}phenyl)-1H-1,2,3-triazol-1-yl]cyclohexanecarboxylic acid]

Structure (SMILES) | IC50
Cc1cc(Nc2nccc(C(F)(F)F)n2)cc(-c2cn(CC3(O)CCC(C(=O)O)C(C)(C)C3)nn2)c1 (stereo not drawn) [Example 3.4, 4-hydroxy-2,2-dimethyl-4-{[4-(3-methyl-5-{[4-(trifluoromethyl)pyrimidin-2-yl]amino}phenyl)-1H-1,2,3-triazol-1-yl]methyl}cyclohexanecarboxylic acid] | 81.4 nM

Reference: patent US9586931B2 (Merck Sharp & Dohme Corp., priority 2012, dated 2017)
